{"source": "patent US20170217982A1", "about": "“Compound isolated from Pseudolysimachion rotundum var. subintegrum, the composition comprising the same for treating allergic disease, inflammatory disease, asthma or chronic obstructive pulmonary disease and the use thereof” (YUNGJIN PHARMACEUTICAL CO., LTD, priority 2014, published 2017)", "system": "COPD induced mice", "assay": "Anti-COPD effect in cigarette smoke + LPS COPD mouse model", "type": "in vivo, C57BL/6N mouse", "settings": "10 mg/kg p.o.", "procedure": "In order to determine the anti-COPD effect of inventive compounds in COPD animal model, following test was performed by using COPD induced mice as disclosed in the literature (Bhaysar, T. et al., J. Chronic Obstr. […]. Dis., 2008, 3, 477-481). Specific pathogen-free male C57BL/6N mouse (about 22-24 g), aged 6 weeks, which were routinely screened serologically for relevant respiratory pathogens, were purchased from Koatech Co. (koatech.co.kr, Seoul, Korea) and bred allowing to access freely to feed (antibiotic free, Samyang Oil & Feed Corp., Korea) and water in breeding room controlling the temperature of 22±2° C., and humidity of 55±15% at the light-dark cycle for 12 hours and acclimated with the experimental environment for 1 week. 2 kinds of test samples, […] ingredient: Roflumilast, 10 mg/kg) were dissolved in 0.5% sodium carboxymethyl cellulose ([…], Sigma-Aldrich, USA) and used as test samples. KS534, and Rolflumilast (ROF 11-492, HETERO, India) were orally administrated to the mice, 1 hour before prior the intratracheal instillation (i.t.). 3R4F Kentuchy Reference Cigarettes ([…], USA) was used as a standard cigarette for generating a cigarette smoke. The cigarette containing 9.4 mg of tar, 11 mg of TPM (total particle matter) and 12 mg of carbon monooxide per piece, was used after harmonizing with the temperature of 22±1° C. and humidity of 60±2% after opening for 48-72 hrs. The exposure of cigarette smoke was performed by using a cigarette smoke generator (DBL Co. Ltd., dhbiolink.com, Korea). The mice were divided into five groups: normal (NC), COPD (cigarette smoke with LPS intranasal instillation), Rof (10 mg/kg of roflumilast, p.o.+cigarette smoke with LPS intranasal instillation), and KS534-15 and 30 (15 mg/kg and 30 mg/kg of KS534, p.o.+cigarette smoke with LPS instillation, respectively). Exposure of cigarette smoke (one puff/min, 35 ml puff volume over 2 s, every 60 s, 8 cigarettes per day) was conducted using a cigarette smoke generator. The mice received 1 h of cigarette smoke exposure in an exposure chamber (50 cm×30 cm×30 cm) for 3 days. Roflumilast and piscroside C were administered to mice by oral lavage 1 h before cigarette smoke exposure for 3 days. LPS was intranasally instilled ([…] dissolved in 50 μL distilled water) under anesthesia 1 h after the final exposure to cigarette smoke. After the end of experiment, the blood, BALF, and pneumonocyte of each rat were isolated and collected to test. After finishing the experiment, rats were anaesthetized with Zoleti150 (3VX9, Virbac, France, p.o) and the blood was delivered through caudal veins. In order to isolate BALF from lung, the bronchus of right lung was ligated with suture and then performed to tracheostomy. IV-use catheter (16 GA, 3S-Cath, Dukwoo, Korea) was put into the bronchus, and both of bronchus and catheter (16 GA, 3S-Cath, Dukwoo, Korea) were fixed with suture. The injector containing 1 ml of DPBS 0.7 (Dubecco's phosphate-buffered saline, Invitrogen, USA) was connected thereto and DPBS was forced to circulate three times to isolate BALF. The right lung ligated with suture was isolated, fixed with 10% neutral formalin solution, and the remaining lung tissue was reserved in refrigerator at -70° C. The isolated BALF was centrifuged for 15 mins at 1500 rpm to prepare cell pellet and the supernatant was reserved in refrigerator at -70° C. for cytokine analysis. The cell pellet was suspended in DPBS, and the cell was attached to a slide glass using by cytospin centrifuge (CS03270047, Hanil, Korea). Diff-Quik staining (ZS1003, Sysmex, Japan) was performed and the cell was observed by optical microscopy (DM1000, Leica, German) to count the number of immunocyte in each test sample. The level of ROS in BALF isolated from the mice was determined by DCF-DA (dihydrodo chloro fluoresce indiacetate, 35854, Sigma-Aldrich, USA) and the final concentration of DCF-DA was adjusted to 20 μm in 200 μL to incubate 30 mins. […]", "data": [{"smiles": "O=C(Nc1c(Cl)cncc1Cl)c1ccc(OC(F)F)c(OCC2CC2)c1", "note": "[Roflumilast, reference compound]", "values": [{"measurement": "level of proteins in BALF compared with COPD induced group", "setting": "COPD mice", "value": "significant reduction"}, {"measurement": "reduced level of ROS in BALF comparing with COPD induced group", "setting": "COPD mice", "value": "about 22.2%"}, {"measurement": "reduced level of neutrophils in BALF comparing with COPD induced group", "setting": "COPD mice", "value": "about 21.1%"}, {"measurement": "invasion of the inflamed cells in lung tissue (histology)", "setting": "COPD mice (FIG. 14)", "value": "significantly reduced"}, {"measurement": "level of IL-6 in BALF compared with COPD induced group", "setting": "COPD mice, ELISA", "value": "significant reduction"}, {"measurement": "level of TNF-alpha in BALF compared with COPD induced group", "setting": "COPD mice, ELISA", "value": "significant reduction"}]}]}
